Reference: PubChem BioAssay AID1259407 (Chemical Carcinogenesis Research Information System (CCRIS), 2018)
The source made the active and inactive calls. How the calls were made is not given here.

System: CCRIS mutagenicity, Ames/micronucleus/aberration tests
Assay: CCRIS mutagenicity studies
[1] = Test System: AMES SALMONELLA TYPHIMURIUM, Strain/Indicator: TA97, Metabolic Activation: NONE, Method: PREINCUBATION
[2] = Test System: AMES SALMONELLA TYPHIMURIUM, Strain/Indicator: TA102, Metabolic Activation: NONE, Method: PREINCUBATION

## O.O=P([O-])([O-])[O-].[Fe+3]
Test System: MOUSE LYMPHOMA, Strain/Indicator: L5178Y (TK+/TK-), Metabolic Activation: NONE, Method: SUSPENSION/PLATE
  mutagenic call: inactive; negative. reevaluation of results: negative
Test System: MOUSE LYMPHOMA, Strain/Indicator: L5178Y (TK+/TK-), Metabolic Activation: RAT, LIVER, S-9, AROCLOR 1254, Method: SUSPENSION/PLATE
  mutagenic call: active; positive
Test System: Mouse lymphoma, Strain/Indicator: L5178Y (tk+/tk-), Metabolic Activation: Rat, Liver, S-9, Aroclor 1254, Method: Suspension/plate
  mutagenic call: active; equivocal (previous evaluation positive)

## CCCCOC(C)=O
Test System: AMES SALMONELLA TYPHIMURIUM, Strain/Indicator: TA97, Metabolic Activation: HAMSTER, LIVER, S-9, AROCLOR 1254 (10 OR 30%), Method: PREINCUBATION
  mutagenic call: inactive; negative
[1]
  mutagenic call: inactive; negative
Test System: AMES SALMONELLA TYPHIMURIUM, Strain/Indicator: TA97, Metabolic Activation: RAT, LIVER, S-9, AROCLOR 1254 (10 OR 30%), Method: PREINCUBATION
  mutagenic call: inactive; negative
Test System: AMES SALMONELLA TYPHIMURIUM, Strain/Indicator: TA98, Metabolic Activation: HAMSTER, LIVER, S-9, AROCLOR 1254 (10 OR 30%), Method: PREINCUBATION
  mutagenic call: inactive; negative
Test System: AMES SALMONELLA TYPHIMURIUM, Strain/Indicator: TA98, Metabolic Activation: RAT, LIVER, S-9, AROCLOR 1254 (10 OR 30%), Method: PREINCUBATION
  mutagenic call: inactive; negative
Test System: AMES SALMONELLA TYPHIMURIUM, Strain/Indicator: TA98, Metabolic Activation: RAT, LIVER, S-9, KC 500, Method: PREINCUBATION
  mutagenic call: inactive; negative
Test System: AMES SALMONELLA TYPHIMURIUM, Strain/Indicator: TA98, Metabolic Activation: RAT, LIVER, S-9, PHENOBARBITAL AND BETA-NAPHTHOFLAVONE, Method: PREINCUBATION
  mutagenic call: inactive; negative
Test System: AMES SALMONELLA TYPHIMURIUM, Strain/Indicator: TA100, Metabolic Activation: HAMSTER, LIVER, S-9, AROCLOR 1254 (10 OR 30%), Method: PREINCUBATION
  mutagenic call: inactive; negative
Test System: AMES SALMONELLA TYPHIMURIUM, Strain/Indicator: TA100, Metabolic Activation: RAT, LIVER, S-9, AROCLOR 1254 (10 OR 30%), Method: PREINCUBATION
  mutagenic call: inactive; negative
Test System: AMES SALMONELLA TYPHIMURIUM, Strain/Indicator: TA100, Metabolic Activation: RAT, LIVER, S-9, KC 500, Method: PREINCUBATION
  mutagenic call: inactive; negative
Test System: AMES SALMONELLA TYPHIMURIUM, Strain/Indicator: TA100, Metabolic Activation: RAT, LIVER, S-9, PHENOBARBITAL AND BETA-NAPHTHOFLAVONE, Method: PREINCUBATION
  mutagenic call: inactive; negative
[2]
  mutagenic call: inactive; negative
Test System: AMES SALMONELLA TYPHIMURIUM, Strain/Indicator: TA102, Metabolic Activation: RAT, LIVER, S-9, PHENOBARBITAL AND BETA-NAPHTHOFLAVONE, Method: PREINCUBATION
  mutagenic call: inactive; negative
Test System: AMES SALMONELLA TYPHIMURIUM, Strain/Indicator: TA104, Metabolic Activation: NONE, Method: PREINCUBATION
  mutagenic call: inactive; negative
Test System: AMES SALMONELLA TYPHIMURIUM, Strain/Indicator: TA104, Metabolic Activation: RAT, LIVER, 2-9, PHENOBARBITAL AND BETA-NAPHTHOFLAVONE, Method: PREINCUBATION
  mutagenic call: inactive; negative
Test System: AMES SALMONELLA TYPHIMURIUM, Strain/Indicator: TA104, Metabolic Activation: RAT, LIVER, S-9, PHENOBARBITAL AND BETA-NAPHTHOFLAVONE, Method: PREINCUBATION
  mutagenic call: inactive; negative
Test System: AMES SALMONELLA TYPHIMURIUM, Strain/Indicator: TA1535, Metabolic Activation: HAMSTER, LIVER, S-9, AROCLOR 1254 (10 OR 30%), Method: PREINCUBATION
  mutagenic call: inactive; negative
Test System: AMES SALMONELLA TYPHIMURIUM, Strain/Indicator: TA1535, Metabolic Activation: RAT, LIVER, S-9, AROCLOR 1254 (10 OR 30%), Method: PREINCUBATION
  mutagenic call: inactive; negative
Test System: AMES SALMONELLA TYPHIMURIUM, Strain/Indicator: TA1535, Metabolic Activation: RAT, LIVER, S-9, KC 500, Method: PREINCUBATION
  mutagenic call: inactive; negative
Test System: AMES SALMONELLA TYPHIMURIUM, Strain/Indicator: TA1535, Metabolic Activation: RAT, LIVER, S-9, PHENOBARBITAL AND BETA-NAPHTHOFLAVONE, Method: PREINCUBATION
  mutagenic call: inactive; negative
Test System: AMES SALMONELLA TYPHIMURIUM, Strain/Indicator: TA1537, Metabolic Activation: HAMSTER, LIVER, S-9, AROCLOR 1254 (30%), Method: PREINCUBATION
  mutagenic call: inactive; negative
Test System: AMES SALMONELLA TYPHIMURIUM, Strain/Indicator: TA1537, Metabolic Activation: RAT, LIVER, S-9, AROCLOR 1254 (30%), Method: PREINCUBATION
  mutagenic call: inactive; negative
Test System: AMES SALMONELLA TYPHIMURIUM, Strain/Indicator: TA1537, Metabolic Activation: RAT, LIVER, S-9, KC 500, Method: PREINCUBATION
  mutagenic call: inactive; negative
Test System: AMES SALMONELLA TYPHIMURIUM, Strain/Indicator: TA1537, Metabolic Activation: RAT, LIVER, S-9, PHENOBARBITAL AND BETA-NAPHTHOFLAVONE, Method: PREINCUBATION
  mutagenic call: inactive; negative
Test System: AMES SALMONELLA TYPHIMURIUM, Strain/Indicator: TA1538, Metabolic Activation: NONE, Method: PREINCUBATION
  mutagenic call: inactive; negative
Test System: AMES SALMONELLA TYPHIMURIUM, Strain/Indicator: TA1538, Metabolic Activation: RAT, LIVER, S-9, KC 500, Method: PREINCUBATION
  mutagenic call: inactive; negative
Test System: E. COLI, Strain/Indicator: WP2UVRA/PKM101, Metabolic Activation: NONE, Method: PREINCUBATION
  mutagenic call: inactive; negative
Test System: E. COLI, Strain/Indicator: WP2UVRA/PKM101, Metabolic Activation: RAT, LIVER, S-9, PHENOBARBITAL AND BETA-NAPHTHOFLAVONE, Method: PREINCUBATION
  mutagenic call: inactive; negative
Test System: E. COLI, Strain/Indicator: WP2 UVRA, Metabolic Activation: NONE, Method: PREINCUBATION
  mutagenic call: inactive; negative
Test System: E. COLI, Strain/Indicator: WP2UVRA, Metabolic Activation: NONE, Method: PREINCUBATION
  mutagenic call: inactive; negative
Test System: E. COLI, Strain/Indicator: WP2 UVRA, Metabolic Activation: RAT, LIVER, S-9, KC 500, Method: PREINCUBATION
  mutagenic call: inactive; negative
Test System: E. COLI, Strain/Indicator: WP2UVRA, Metabolic Activation: RAT, LIVER, S-9, PHENOBARBITAL AND BETA-NAPHTHOFLAVONE, Method: PREINCUBATION
  mutagenic call: inactive; negative

## O.O.O=C([O-])[C@H](O)[C@@H](O)[C@H](O)[C@H](O)CO.O=C([O-])[C@H](O)[C@@H](O)[C@H](O)[C@H](O)CO.[Fe+2]
[1]
  mutagenic call: inactive; negative
Test System: AMES SALMONELLA TYPHIMURIUM, Strain/Indicator: TA97, Metabolic Activation: RAT, LIVER, S-9, AROCLOR 1254, Method: PREINCUBATION
  mutagenic call: inactive; negative
[2]
  mutagenic call: inactive; negative
Test System: AMES SALMONELLA TYPHIMURIUM, Strain/Indicator: TA102, Metabolic Activation: RAT, LIVER, S-9, AROCLOR 1254, Method: PREINCUBATION
  mutagenic call: inactive; negative

## O=c1[nH]cc(CO)c(=O)[nH]1
Test System: CHINESE HAMSTER V-79, Strain/Indicator: V-79 (HPRT)/6-THIOGUANINE, Metabolic Activation: NONE, Method: STANDARD PLATE
  mutagenic call: inactive; negative

## CC(C)N=C(NC(C)C)OCc1ccc([N+](=O)[O-])cc1
Test System: AMES SALMONELLA TYPHIMURIUM, Strain/Indicator: TA98, Metabolic Activation: NONE, Method: PREINCUBATION
  mutagenic call: active; positive
Test System: AMES SALMONELLA TYPHIMURIUM, Strain/Indicator: TA98, Metabolic Activation: RAT, LIVER, S-9, PCB, Method: PREINCUBATION
  mutagenic call: active; positive
Test System: AMES SALMONELLA TYPHIMURIUM, Strain/Indicator: TA100, Metabolic Activation: NONE, Method: PREINCUBATION
  mutagenic call: active; positive
Test System: AMES SALMONELLA TYPHIMURIUM, Strain/Indicator: TA100, Metabolic Activation: RAT, LIVER, S-9, PCB, Method: PREINCUBATION
  mutagenic call: active; positive
